We go through 24 molecules from US10940188B2, “Compounds and methods for treatment and prevention of Flavivirus infection” (priority 2016, dated 2021).

Series [1] concerns ZIKV production from SNB-19 cells. The series can be described thus: Infectious ZIKV production from SNB-19 cells, focus-forming unit assay on Vero cells. Type of series: cell-based, Zika virus. The following applies: PRVABC59-ZIKV, SNB-19 supernatants on Vero cells, ZIKV-ENV stain; read-out: IC50 against ZIKV infection in human glioblastoma cell culture. Here is the method: FIGS. 2A-1, 2A-2, 2B-1, 2B-2, 2C-1, 2C-2, 2D-1, 2D-2, 2D-3, 2E-1, 2E-2, and 2F. […] Screening of select compounds for antiviral activity against ZIKV infection was carried out. Glioblastoma SNB-19 cells were treated with indicated compound at 10×AC50 (determined in the primary caspase screen) for 1 hour prior to inoculation with FSS-13025 (at MOI=1). Cells were harvested 24 hours post infection and analyzed by Western blot for ZIKV-NS1 or GAPDH (FIGS. 2A-1 and 2A-2). Titration of PHA-690509 on glioblastoma cells for anti-ZIKV activity. Three strains of virus (FSS-13025, PRVABC59, and MR766; MOI=1) were tested. Shown are sample western blot images (FIG. 2B-1) and ImageJ quantification (FIG. 2B-2). Values represent mean±s.d. (n=3; ***P<0.001; One-way ANOVA). Titration of Emricasan on SNB-19 cells for anti-ZIKV activity was conducted similarly (FIGS. 2C-1 and 2C-2). Values represent mean±s.d. […] Sample western blot (FIG. 2D-2) and ImageJ quantification (FIG. 2D-3) are shown for infection with the PRVABC59 strain (MOI=1). Results for additional strains are shown in FIGS. 6A-F. Values represent mean±s.d. […] The concentration of NS1 in the medium of infected SNB-19 cells collected 24 hours post-infection was quantified by a ZIKV-NS1 ELISA kit (FIGS. 2E-1 and 2E-2). […] Cell culture supernatant was collected 24 hours after infection, and infectious virions were quantified for focus-forming units (FFU) using Vero cells. […] Curves represent best fits for calculating IC50 values, and the insets report the calculated IC50 value for each compound.
FIGS. 18A, 18B, 18C-1, 18C-2, 18D, 18E, 18F, 18G-1, and 18G-2. […] 24 hours post infection, supernatants from SNB-19 cells were titrated onto naïve vero cells plated in a monolayer in 96-well plates for infectious focus-forming unit assay as previously described and focus forming units quantified. […] Immunofluorescence (IF) staining (FIG. 18C-1) and quantification (FIG. 18C-2) of ZIKV positive SNB-19 cells following infection with one of three ZIKV strains and treatment with emetine at 0.01, 0.1, or 1 μM. […]
FIG. 21. […] IC50's calculated using graphpad PRISM software. […]

A further series relates to ZIKV MR766 NS1. The series can be described thus: microbe, parasite or virus in culture. Type of series: cell-based, Zika virus. Conditions: read-out: NS1-IC50. Here is the method:
A one-step NS1 TR-FRET (Time-resolved fluorescence resonance energy transfer) assay for a screen of anti-ZIKV compounds was carried out. Human embryonic kidney cell line HEK293 cells were seeded into 384-well plates and infected with ZIKV MR766 at a MOI of 0.5 for 2 days. The FRET assay was performed with two clones of anti-NS1 antibody (ab) differentially labelled with donor and acceptor fluorophores.

Another series deals with HEK293 cells. Briefly: Toxicity IC50 (cell-killing activity) of the NS1 TR-FRET screen. It is filed as cell-based, human. Conditions: cell-killing activity; for IC50: read-out: Tox IC50. (In TR-FRET formats the signal depends on donor and acceptor labels being close together.)
In series [2] the test system is hNPCs infected with ZIKV PRVABC59. Briefly: hNPC proliferation after ZIKV infection (EdU). Type of series: cell-based, human. The following applies: PHA-690509 1 μM, Seliciclib 5 μM. Here is the method: (§1) FIGS. 17A-17C. Analysis of potential toxicity of CDKis on human astrocyte viability and hNPC proliferation. Human iPSC-derived astrocytes (BJ line) were treated with each indicated compound (cpd) for 25 hours prior to cell viability analysis as measured in relative luciferase units for ATP production. Values represent mean+s.d. (n=3 cultures; ***P<0.001; **P<0.01; One-way ANOVA for comparison with the DMSO treatment). RLU: relative luminescence units. hNPCs were treated with saline, PHA-690509 (PHA, 1 μM) or Seliciclib (5 μM), 1 hour prior to ZIKV PRVABC59 infection (MOI=0.08). At 72 hours post infection, EdU (10 μM) was added to hNPCs and cells were cultured for additional 4 hours prior to fixation and staining for EdU and DAPI. Values represent mean+s.e.m. (n=3 cultures; ***P<0.001; One-way ANOVA for comparison with the mock treatment). Day 20 forebrain-specific brain organoids were treated with PHA-690509 (1 μM) or Seliciclib (5 μM) for 3 days and hNPC proliferation was evaluated by phospho-Histone 3 (PH3) expression within the ventricular zone. Values represent mean+s.e.m. (n=8 organoids; P>0.05; One-way ANOVA for comparison with the mock treatment).

Series [3] relates to forebrain-specific brain organoids. The series can be described thus: hNPC proliferation in forebrain organoids (phospho-Histone 3), compound alone. It is filed as cell-based, human. The following applies: 3 days. Here is the method:
as §1

Where [4] appears, read: HEK293 cells, ZIKV MR766, MOI 0.5, 2 days, virus-inhibiting activity.

Structures are written as SMILES. Where a name gives a salt, the structure may show the parent alone. Read-outs that look alike come from different tables or passages of the source.

On to `CCCCCCCC(=O)Oc1ccc(Cl)cc1C(=O)Nc1ccc([N+](=O)[O-])cc1Cl` [DK520], for which, in series [1], the IC50 was under 3000 nM.

For the molecule `CC(C)C[C@H](NC(=O)CNC(=O)c1cc(Cl)ccc1Cl)B1OC(=O)C(CC(=O)O)(CC(=O)O)O1` [Ixazomib citrate], the IC50 with ZIKV MR766 NS1 (Zika virus, HEK293, 48 h) turned out to be 196 nM; with HEK293 cells (Homo sapiens, HEK293) it was 1580 nM. For the molecule `O=C(Cc1ccc(-c2ccc(OCCN3CCOCC3)cc2)cn1)NCc1ccccc1` [KX-01], the half-maximal inhibitory concentration (IC50) with ZIKV MR766 NS1 (setting [4]) came out at 481 nM; with HEK293 cells, 19300 nM. Regarding `CCC[C@H](Nc1nc(-c2ccc(NC(=O)NCC)c(OC)c2)ncc1C)c1cccnc1` [Lexibulin hydrochloride], the IC50 with ZIKV MR766 NS1 (Zika virus, HEK293, 48 h) turned out to be 171 nM. Further, the “Tox IC50” value in the series with HEK293 cells is on record as “No”. `CC(C)C[C@H](NC(=O)CNC(=O)c1cc(Cl)ccc1Cl)B(O)O` [MLN-2238]: the concentration for half-maximal inhibition (IC50) in the series with ZIKV MR766 NS1 (Zika virus, HEK293, 48 h) worked out at 234 nM; in the series with HEK293 cells (Homo sapiens, HEK293) it was 2130 nM. Turning to `O=C1c2c(O)ccc(O)c2C(=O)c2c(NCCNCCO)ccc(NCCNCCO)c21` [Mitoxantrone], the IC50 in the series on ZIKV MR766 NS1 (Zika virus, HEK293, 48 h) was found to be 232 nM; in the series with HEK293 cells (Homo sapiens, HEK293), 50000 nM. As for `COc1c(C)c2c(c(O)c1C/C=C(\C)CCC(=O)OCCN1CCOCC1)C(=O)OC2` [Mycophenolate mofetil], the IC50 with ZIKV MR766 NS1 (Zika virus, HEK293, 48 h) is 529 nM. The “Tox IC50” value in the series with HEK293 cells is given as “No”.

As for `COc1c(C)c2c(c(O)c1C/C=C(\C)CCC(=O)O)C(=O)OC2` [Mycophenolic acid], the IC50 in the series on ZIKV MR766 NS1 (Zika virus, HEK293, 48 h) came to 539 nM. Further, in the series with HEK293 cells, the “Tox IC50” value was “No”. In the case of `NCC(=O)Nc1ccc(-n2nc(C(F)(F)F)cc2-c2ccc3c(ccc4ccccc43)c2)cc1` [OSU-03012], the 50% inhibitory concentration (IC50) was 992 nM in the series with ZIKV MR766 NS1 (Zika virus, HEK293, 48 h) and 10000 nM in the series on HEK293 cells (Homo sapiens, HEK293). Take `CC(=O)O[C@H]1C(=O)[C@@]2(C)[C@H]([C@H](OC(=O)c3ccccc3)[C@]3(O)C[C@H](OC(=O)[C@H](O)[C@@H](NC(=O)c4ccccc4)c4ccccc4)C(C)=C1C3(C)C)[C@]1(OC(C)=O)CO[C@@H]1C[C@@H]2O` [PACLITAXEL]: the 50% inhibitory concentration (IC50) in the series with ZIKV MR766 NS1 (Zika virus, HEK293, 48 h) turned out to be 89.4 nM. Moreover, the “Tox IC50” value with HEK293 cells is listed as “No”. Take `C[C@]1(CO)CN(c2cc(C(=O)Nc3ccc4c(c3)-c3c(c(C(N)=O)nn3-c3ccc(F)cc3)CC4)c(Cl)cn2)C[C@@]1(C)CO` [PF-184]: the 50% inhibitory concentration (IC50) in the series on ZIKV MR766 NS1 (setting [4]) stood at 388 nM. The “Tox IC50” value in the series on HEK293 cells is listed as “No”. Taken in the same sequence, the figures for `Cn1cc(-c2[nH]c3cc(NC(=O)[C@H](N)C4CCCCC4)cc4c3c2C=NNC4=O)cn1` [PF-477736] were 489 nM and “No”. Turning to `Cc1ccc([N+](=O)[O-])cc1S(=O)(=O)N(C)/N=C/c1cnc2ccc(Br)cn12` [PIK-75], the half-inhibitory concentration (IC50) with ZIKV MR766 NS1 (setting [4]) amounted to 616 nM. The “Tox IC50” value in the series on HEK293 cells is on record as “No”. With `CC(C)c1nn(-c2c(Cl)cccc2Cl)c2nc(Cc3ccc(OCCO)cc3)[nH]c(=O)c12` [RGB-286147], the IC50 with ZIKV MR766 NS1 (setting [4]) worked out at 268 nM. Moreover, the “Tox IC50” value in the series with HEK293 cells is on record as “No”.

As for `CCc1c2c(nc3ccc(O)cc13)-c1cc3c(c(=O)n1C2)COC(=O)[C@]3(O)CC` [SN-38], in the series on ZIKV MR766 NS1 (setting [4]), the IC50 worked out at 11.3 nM. Besides, in the series on HEK293 cells, the “Tox IC50” value is given as “No”. Consider `CC[C@H](CO)Nc1nc(NCc2ccccc2)c2ncn(C(C)C)c2n1` [Seleciclib, Seliciclib], for which the “rescue of ZIKV-induced reduction of hNPC proliferation” value in series [2] is reported as “partially rescued ZIKV-induced reduction of hNPC proliferation”. Also, the “effect of the treatment itself on hNPC proliferation” value in series [3] was “minimal effect on hNPC proliferation in brain organoids”. Take `C/C=C(/C)C(=O)O[C@H]1C(C)=C2[C@H]([C@@H]1OC(=O)CCCCCCC)[C@@](C)(OC(C)=O)C[C@H](OC(=O)CCC)[C@@]1(O)[C@H]2OC(=O)[C@@]1(C)O` [Thapsigargin]: the IC50 in the series on ZIKV MR766 NS1 (Zika virus, HEK293, 48 h) stood at 171 nM; in the series on HEK293 cells (Homo sapiens, HEK293), 40000 nM.

Take `CC[C@@]1(O)C(=O)OCc2c1cc1n(c2=O)Cc2cc3c(CN(C)C)c(O)ccc3nc2-1` [Topotecan hydrochloride]: the IC50 with ZIKV MR766 NS1 (Zika virus, HEK293, 48 h) came out at 51.4 nM. Besides, the “Tox IC50” value in the series on HEK293 cells is listed as “No”.

As to `Nc1ccc(-c2ccc3ncc4ccc(=O)n(-c5cccc(C(F)(F)F)c5)c4c3c2)cn1` [Torin-2], the 50% inhibitory concentration (IC50) with ZIKV MR766 NS1 (setting [4]) was 724 nM. The “Tox IC50” value in the series with HEK293 cells was “No”. For `CC(C)[C@]12O[C@H]1[C@@H]1O[C@]13[C@]1(O[C@H]1C[C@H]1C4=C(CC[C@@]13C)C(=O)OC4)[C@@H]2O` [Triptolide], the half-maximal inhibitory concentration (IC50) with ZIKV MR766 NS1 (Zika virus, HEK293, 48 h) was found to be 465 nM. Further, the “Tox IC50” value with HEK293 cells is “No”. `CC[C@]1(O)C[C@H]2CN(CCc3c([nH]c4ccccc34)[C@@](C(=O)OC)(c3cc4c(cc3OC)N(C=O)[C@H]3[C@@](O)(C(=O)OC)[C@H](OC(C)=O)[C@]5(CC)C=CCN6CC[C@]43[C@@H]65)C2)C1` [Vincristine sulfate]: the concentration for half-maximal inhibition (IC50) in the series with ZIKV MR766 NS1 (Zika virus, HEK293, 48 h) was 156 nM. The “Tox IC50” value in the series with HEK293 cells was “No”.

As for `CC[C@]1(O)C[C@@H]2CN(CCc3c([nH]c4ccccc34)[C@@](C(=O)OC)(c3cc4c(cc3OC)N(C)[C@H]3[C@@](O)(C(N)=O)[C@H](O)[C@]5(CC)C=CCN6CC[C@]43[C@@H]65)C2)C1` [Vindesine sulfate salt], the IC50 in the series with ZIKV MR766 NS1 (Zika virus, HEK293, 48 h) amounted to 664 nM. In addition, the “Tox IC50” value with HEK293 cells is given as “No”. As for `CCC1=C[C@@H]2CN(C1)Cc1c([nH]c3ccccc13)[C@@](C(=O)OC)(c1cc3c(cc1OC)N(C)[C@H]1[C@@](O)(C(=O)OC)[C@H](OC(C)=O)[C@]4(CC)C=CCN5CC[C@]31[C@@H]54)C2` [Vinorelbine tartrate], the IC50 in the series with ZIKV MR766 NS1 (Zika virus, HEK293, 48 h) was found to be 270 nM. In addition, the “Tox IC50” value with HEK293 cells was “No”. As to `CC[C@@H]1C(=O)N(C)c2cnc(Nc3ccc(C(=O)N[C@H]4CC[C@H](N5CCN(CC6CC6)CC5)CC4)cc3OC)nc2N1C(C)C` [Volasertib], the 50% inhibitory concentration (IC50) in the series on ZIKV MR766 NS1 (Zika virus, HEK293, 48 h) was 64.8 nM. Further, the “Tox IC50” value in the series on HEK293 cells is “No”.

What is called IC50 is the concentration that gives 50% inhibition.
